How the values were obtained:
[1] = 101 kPa, Liquid
[2] = xn = mol fraction of the nth substance listed; conditions: 101 kPa, Liquid

Cc1ccccc1 [toluene]
[1]
Conditions	mass density [kg/m3]	viscosity [mPa·s]
298.15 K	861.65	0.553
303.15 K	857.01	0.522
313.15 K	847.63	0.467
323.15 K	838.23	0.421
333.15 K	828.71	0.381
343.15 K	819.86	0.349
353.15 K	809.68	0.321

c1ccccc1 [benzene]
[1]
Conditions	mass density [kg/m3]	viscosity [mPa·s]
298.15 K	873.57	0.601
303.15 K	868.24	0.562
313.15 K	857.34	0.493
323.15 K	846.59	0.436
333.15 K	835.75	0.389
343.15 K	824.98	0.354

O=CN1CCOCC1 [N-formylmorpholine]
[1]
Conditions	mass density [kg/m3]	viscosity [mPa·s]
298.15 K	1146.06	7.955
303.15 K	1141.7	6.877
313.15 K	1132.96	5.214
323.15 K	1124.33	4.08
333.15 K	1115.63	3.284
343.15 K	1107.96	2.707
353.15 K	1098.76	2.274

O=CN1CCOCC1 [N-formylmorpholine] + c1ccccc1
[2]
Conditions	mass density [kg/m3]	viscosity [mPa·s]
298.15 K, x2 = 0	1146.06	7.955
298.15 K, x2 = 0.0977	1124.83	6.078
298.15 K, x2 = 0.198	1101.75	4.597
298.15 K, x2 = 0.2987	1077.06	3.524
298.15 K, x2 = 0.4013	1051.67	2.656
298.15 K, x2 = 0.4983	1027.35	2.051
298.15 K, x2 = 0.599	1001.36	1.602
298.15 K, x2 = 0.6999	970.18	1.234
298.15 K, x2 = 0.802	938.33	0.96
298.15 K, x2 = 0.8967	908.12	0.76
303.15 K, x2 = 0	1141.7	6.877
303.15 K, x2 = 0.0977	1120.44	5.251
303.15 K, x2 = 0.198	1097.28	4.028
303.15 K, x2 = 0.2987	1072.53	3.109
303.15 K, x2 = 0.4013	1046.95	2.376
303.15 K, x2 = 0.4983	1022.6	1.858
303.15 K, x2 = 0.599	996.29	1.456
303.15 K, x2 = 0.6999	965.22	1.13
303.15 K, x2 = 0.802	933.24	0.884
303.15 K, x2 = 0.8967	902.85	0.706
313.15 K, x2 = 0	1132.96	5.214
313.15 K, x2 = 0.0977	1111.6	4.059
313.15 K, x2 = 0.198	1088.31	3.174
313.15 K, x2 = 0.2987	1063.41	2.492
313.15 K, x2 = 0.4013	1037.61	1.946
313.15 K, x2 = 0.4983	1013.15	1.538
313.15 K, x2 = 0.599	986.09	1.217
313.15 K, x2 = 0.6999	955.16	0.962
313.15 K, x2 = 0.802	922.97	0.759
313.15 K, x2 = 0.8967	892.39	0.613
323.15 K, x2 = 0	1124.33	4.08
323.15 K, x2 = 0.0977	1102.85	3.23
323.15 K, x2 = 0.198	1079.44	2.568
323.15 K, x2 = 0.2987	1054.39	2.046
323.15 K, x2 = 0.4013	1028.33	1.614
323.15 K, x2 = 0.4983	1003.64	1.296
323.15 K, x2 = 0.599	975.97	1.037
323.15 K, x2 = 0.6999	945.02	0.826
323.15 K, x2 = 0.802	912.7	0.66
323.15 K, x2 = 0.8967	881.97	0.538
333.15 K, x2 = 0	1115.63	3.284
333.15 K, x2 = 0.0977	1094.03	2.636
333.15 K, x2 = 0.198	1070.44	2.124
333.15 K, x2 = 0.2987	1045.28	1.715
333.15 K, x2 = 0.4013	1018.97	1.371
333.15 K, x2 = 0.4983	993.97	1.11
333.15 K, x2 = 0.599	966	0.898
333.15 K, x2 = 0.6999	934.99	0.721
333.15 K, x2 = 0.802	902.37	0.54
333.15 K, x2 = 0.8967	871.42	0.479
343.15 K, x2 = 0	1107.96	2.707
343.15 K, x2 = 0.0977	1086.23	2.201
343.15 K, x2 = 0.198	1062.45	1.798
343.15 K, x2 = 0.2987	1037.1	1.466
343.15 K, x2 = 0.4013	1010.54	1.183
343.15 K, x2 = 0.4983	985.32	0.966
343.15 K, x2 = 0.599	956.77	0.787
343.15 K, x2 = 0.6999	925.78	0.637
343.15 K, x2 = 0.802	892.86	0.518
343.15 K, x2 = 0.8967	861.54	0.428

c1ccccc1 [benzene] + O=CN1CCOCC1
[2], x1 = 1
Conditions	mass density [kg/m3]	viscosity [mPa·s]
298.15 K	873.57	0.601
303.15 K	868.24	0.562
313.15 K	857.34	0.493
323.15 K	846.59	0.436
333.15 K	835.75	0.389
343.15 K	824.98	0.354

Cc1ccccc1 [toluene] + O=CN1CCOCC1
[2], x1 = 1
Conditions	mass density [kg/m3]	viscosity [mPa·s]
298.15 K	861.65	0.553
303.15 K	857.01	0.522
313.15 K	847.63	0.467
323.15 K	838.23	0.421
333.15 K	828.71	0.381
343.15 K	819.86	0.349
353.15 K	809.68	0.321
